Measured values published in patent US5157039A, “2-quinolinyl methoxy compounds, medical uses and intermediates therefor” (Leo Pharmaceutical Products Ltd., priority 1985, dated 1992).
Read-outs that look alike come from different tables or passages of the source.

Key:
[1] = tested on: leukotriene D4-induced contraction of guinea-pig ileum strips; test: Leukotriene D4-induced contraction of isolated guinea-pig ileum strips (leukotriene antagonism); conditions: leukotriene D4 10^-9 M; atropine and indomethacin present
Description: Antagonism of leukotriene mediated effects at the receptor level, in addition to inhibition of leukotriene synthesis, is an additional mode of action of some of the present compounds. Obviously, this dual mechanism is of potentially great interest in preventing leukotriene mediated reactions.
Leukotriene antagonists may be identified by observing the contractions elicited in preparations of guinea-pig ileum strips suspended in physiological buffers by addition of pure leukotriene D4. The ileum strips are connected to an isotonic transducer, and the contractions are continuously recorded on a multichannel recorder.
Before addition of leukotriene D4, atropine and indomethacin are added to the buffer in order to block any cholinergic or prostaglandin-mediated contractile effects. Test compounds to be studied with respect to leukotriene antagonism are dissolved in dimethylsulphoxide (DMSO) and added to the organ bath 2 minutes prior to addition of leukotriene D4 at 10^-9 M (final concentration), the final concentration of DMSO being 0.1%, a concentration which can be shown not to affect the ileum response to leukotriene D4. The test compounds may be added at various concentrations, often beginning at 10^-6 M and then decreasing the concentration in case of antagonism.

[2] = tested on: IL-8 mRNA in peripheral blood mononuclear cells (PBMC); test: IL-8 mRNA synthesis in LPS-stimulated peripheral blood mononuclear cells (cDNA probe); assay type: cell-based; conditions: submicromolar concentrations
Description: (§1) These effects were obtained using submicromolar concentrations of the two compounds.

[3] = tested on: gene expression of IL-8; test: Gene expression of IL-8 in endothelial cells, fibroblasts and keratinocytes stimulated by LPS or IL-1; assay type: cell-based
Description: as §1

[4] = tested on: IL-1 mRNA in PBMC; test: IL-1 mRNA production in LPS-stimulated PBMC; assay type: cell-based
Description: as §1

[5] = tested on: IL-1 release from inflammatory cells; test: IL-1 release from inflammatory cells; assay type: cell-based
Description: as §1

[6] = tested on: rat peritoneal mast cell; test: Rat peritoneal mast cell histamine release; assay type: cell-based
Description: Products formed by the enzyme responsible for the first step in leukotriene synthesis, 5-lipoxygenase, which is probably the target enzyme of compounds of the present invention, play a role as mediators of mast cell degranulation. One of the effects of mast cell degranulation is the release of histamine. Thus, 5-lipoxygenase inhibitors may suppress histamine release from mast cells.
In order to investigate this possibility, cells obtained from washings of the peritoneal cavity of rats, were studied. These peritoneal washings contain mainly macrophages and mast cells. The mast cells were passively sensitized with IgE-antibodies to ovalbumin, and then challenged with the antigen, ovalbumin, to induce histamine release. Alternatively, the unsensitized mast cells were exposed to an […], compound 48/80*, which induces histamine release independently of immunologic mechanisms. Histamine released to the medium after degranulation of the peritoneal mast cells was measured by a fluorometric method.
* (the condensation product of N-methyl-p-methoxyphenethylamine with formaldehyde)

[7] = tested on: 5-lipoxygenase; test: 5-lipoxygenase activity in vitro in A 23187-stimulated rat peritoneal cells (radiolabelled arachidonic acid metabolites); assay type: cell-based; conditions: final concentrations from 10^-6 M and above
Method: The biological activity of the present compounds was determined both in vitro and in vivo. The following method was used to assay 5-lipoxygenase activity in vitro: Rat peritoneal cells were harvested by i.p. injection of 10 ml Hank's balanced salt solution (GIBCO), cat. No. 4025, U.S.A.) containing 12.5 U/ml sodium heparin (Leo, Denmark) in anaesthesized rats. The resulting cell suspension, which mainly contained macrophages, was transferred to a test tube and washed twice by centrifugation (200 g, 10 min.) and resuspended in Hank's balanced salt solution containing 0.5% bovine serum albumin (Sigma Chem. Co., U.S.A.). The cells from 6 rats were finally resuspended in Hank's balanced salt solution containing 5 μCi (1-^14 C) arachidonic acid (The Radiochemical Centre, Amersham, U.K.) and incubated for 90 minutes at 30° C. […] An aliquot of the supernatant was counted by liquid scintillation spectrometry in order to calculate the total radioactive release induced by A 23187 in presence of drugs. […] Radioactive spots were detected by autoradiography (AGFA-GEVAERT, Osray-RPI X-ray film, Belgium), and changes induced by drugs in the metabolic pattern of arachidonic acid were quantified by a laser densitometer (LKB, Ultroscan™ 2202, Bromma, Sweden) in combination with an integrating computer (SP 4100, SpectraPhysics, San Jose, Calif., U.S.A.). […]

[8] = tested on: cyclooxygenase; test: Synthesis of cyclooxygenase products in A 23187-stimulated rat peritoneal cells (same assay); assay type: cell-based; conditions: final concentrations from 10^-6 M and above
Method: The biological activity of the present compounds was determined both in vitro and in vivo. The following method was used to assay 5-lipoxygenase activity in vitro: Rat peritoneal cells were harvested by i.p. injection of 10 ml Hank's balanced salt solution (GIBCO), cat. No. 4025, U.S.A.) containing 12.5 U/ml sodium heparin (Leo, Denmark) in anaesthesized rats. The resulting cell suspension, which mainly contained macrophages, was transferred to a test tube and washed twice by centrifugation (200 g, 10 min.) and resuspended in Hank's balanced salt solution containing 0.5% bovine serum albumin (Sigma Chem. Co., U.S.A.). The cells from 6 rats were finally resuspended in Hank's balanced salt solution containing 5 μCi (1-^14 C) arachidonic acid (The Radiochemical Centre, Amersham, U.K.) and incubated for 90 minutes at 30° C. This caused labelling of cell membrane phospholipids as radioactive arachidonic acid was incorporated in the 2-position of the glycerol moiety. Excess arachidonic acid was then removed by washing the cells twice as described above. The cells were finally resuspended in the same solution at 10^7 cells/ml. 475 μl of the cell suspension was preincubated at 37° C. for 5 minutes with either 5 μl DMSO (control tube), or 5 μl of a drug solution in DMSO. Then 20 μl of a mixture of equal volumes of the calcium ionophore A 23187, 10^-4 M in ethanol (Calbiochem, U.S.A.), and 0.5M CaCl2 in water was added. The final concentration of A 23187 was thus 2×10^-6 M, transferred to an ice-bath and centrifugated for 10 minutes at 3,000 g (4° C.). An aliquot of the supernatant was counted by liquid scintillation spectrometry in order to calculate the total radioactive release induced by A 23187 in presence of drugs. […] Radioactive spots were detected by autoradiography (AGFA-GEVAERT, Osray-RPI X-ray film, Belgium), and changes induced by drugs in the metabolic pattern of arachidonic acid were quantified by a laser densitometer (LKB, Ultroscan™ 2202, Bromma, Sweden) in combination with an integrating computer (SP 4100, SpectraPhysics, San Jose, Calif., U.S.A.). […]

[9] = tested on: release of leukotrienes; test: A 23187-induced leukotriene release in the peritoneal cavity of rats in vivo; set-up: species or system rat; conditions: administered prior to intraperitoneal A 23187
Method: Two in vivo methods were used to assess the effect of either oral or parenteral administration of the compounds to experimental animals on the release of leukotrienes. In the first method, calcium ionophore A 23187 was injected into the peritoneal cavity of adrenalectomized and anaestesized rats. 5 minutes later the cavity was washed, and the leukotrienes were extracted with ethanol and redissolved in water or buffer. The amount of leukotriene D4 released in response to A 23187 was determined by bioassay, using the contraction of an isolated guinea-pig ileum-strip as indicator. Leukotriene C4 and B4 were measured by commercially available radioimmunoassays (New England Nuclear, Dreieich, West Germany, and The Radiochemical Centre, Amersham, U. K., respectively).

[10] = tested on: asthmatic reaction (airway resistance) in guinea-pigs; test: Asthmatic reaction in ovalbumin-hypersensitive guinea-pigs (Konzett-Rossler); assay type: in vivo, guinea-pig; conditions: ovalbumin i.v. challenge; mepyramine, indomethacin and propranolol pretreated
Description: The other method was used to measure a physiological consequence of leukotriene release in the lungs, an asthmatic attack. Guinea-pigs hypersensitive to ovalbumin were anaestesized and mechanically ventilated with a constant airvolumen ad modum Konzett-Rossler. The animals were pretreated with mepyramine, indomethacin and propranolol to avoid interference with endogenous production of histamine, prostaglandins and β-adrenergic mechanisms, respectively. They were then challenged with an intravenous injection of ovalbumin, and the increase in airway resistance was measured by the respiratory overflow.

[11] = antigen ovalbumin, passively sensitized mast cells, read-out: Inhibition (%) of histamine release induced by Antigen
[12] = compound 48/80, unsensitized mast cells, read-out: Inhibition (%) of histamine release induced by Cp. 48/80

SMILES	concentration at which leukotriene D4-induced contraction is inhibited [1]	inhibition at 10 µM [6, 11] [%]	inhibition at 10 µM [6, 12] [%]	other results
CC(=O)Nc1cccc(OCc2ccc3ccccc3n2)c1 [11 (part A), 3-(2'-Quinolylmethoxy)acetanilide]	submicromolar range	–	–	–
CNc1cccc(OCc2ccc3ccccc3n2)c1 [11 (part C), 3-(2'-Quinolylmethoxy)-N-methylaniline]	submicromolar range	–	–	–
O=C(O)c1ccc(CN(Cc2cccc(F)c2)c2ccc(OCc3ccc4ccccc4n3)cc2)cc1 [ETH615, 4-(2'-quinolylmethoxy)-N-(3"-fluorobenzyl)-N-(4'"-carboxybenzyl)aniline]	–	–	–	synthesis of IL-8 messenger RNA [2]: inhibit the synthesis of messenger RNA; gene expression of IL-8 in endothelial cells ([3]; endothelial cells stimulated by LPS or IL-1): suppress the gene expression of IL-8; gene expression of IL-8 in fibroblasts ([3]; fibroblasts stimulated by LPS or IL-1): suppress the gene expression of IL-8; gene expression of IL-8 in keratinocytes ([3]; keratinocytes stimulated by LPS or IL-1): suppress the gene expression of IL-8; IL-1 mRNA production [4]: inhibits IL-1 mRNA production; IL-1 release [5]: suppression of IL-1 release
O=C(O)c1cccc(CN(Cc2ccccc2)c2ccc(OCc3ccc4ccccc4n3)cc2)c1 [ETH647]	–	–	–	synthesis of IL-8 messenger RNA [2]: inhibit the synthesis of messenger RNA
CNc1ccc(OCc2ccc3ccccc3n2)cc1 [Ex. 10, part C, 4-(2'-Quinolylmethoxy)-N-methylaniline]	–	51	19	–
c1ccc(CNc2ccc(OCc3ccc4ccccc4n3)cc2)cc1 [Ex. 38, 4-(2'-Quinolylmethoxy)-N-benzylaniline]	–	91	85	–
NCCCCCCNc1ccc(OCc2ccc3ccccc3n2)cc1 [Ex. 66, 4-(2'-Quinolylmethoxy)-N-1"-(6"-amino-n-hexyl)aniline]	–	100	65	–
c1ccc(CNc2cccc(OCc3ccccn3)c2)cc1 [Ex. 68, 3-(2'-Pyridylmethoxy)-N-benzylaniline]	–	45	17	–
CCCNc1ccc(OCc2ccccn2)cc1 [Ex. 70]	–	100	45	–
CCCN(CCC)c1ccc(OCc2ccc3ccccc3n2)cc1 [Ex. 77, 4-(2'-Quinolylmethoxy)-N,N-di-n-propylaniline]	–	100	92	–
Clc1cc(OCc2ccncc2)ccc1NCc1ccccc1 [Ex. 78, part C, 2-Chloro-4-(4'-pyridylmethoxy)-N-benzylaniline]	submicromolar range	96	95	–
Clc1cc(NCc2ccccc2)ccc1OCc1ccncc1 [Ex. 79, part C, 3-Chloro-4-(4'-pyridylmethoxy)-N-benzylaniline]	–	100	95	–
CN(C)c1cccc(OCc2ccc3ccccc3n2)c1 [Example 18, 3-(2'-Quinolylmethoxy)-N,N-dimethylaniline]	submicromolar range	–	–	–
CCCCNc1ccc(OCc2ccc3ccccc3n2)cc1 [Example 22, 4-(2'-Quinolylmethoxy)-N-n-butylaniline]	submicromolar range	100	75	–
CCCCNc1cccc(OCc2ccc3ccccc3n2)c1 [Example 23, 3-(2'-Quinolylmethoxy)-N-n-butylaniline]	submicromolar range	–	–	–
c1ccc(CNc2cccc(OCc3ccc4ccccc4n3)c2)cc1 [Example 39, 3-(2'-Quinolylmethoxy)-N-benzylaniline]	submicromolar range	100	95	–
CNc1ccc(OCc2cccnc2)cc1 [OT 3447, 4-(3'-Pyridylmethoxy)-N-methylaniline]	–	–	–	production of 5-HETE [7]: significant and specific decrease; production of leukotriene B4 [7]: significant and specific decrease; synthesis of prostaglandin D2 [8]: not affected; synthesis of the cyclooxygenase product HHT [8]: not affected; synthesis of thromboxane B2 [8]: not affected; leukotriene B4 formation (radioimmunoassay) [9]: substantial inhibition; leukotriene C4 formation (radioimmunoassay) [9]: substantial inhibition; leukotriene D4 formation (bioassay, guinea-pig ileum-strip) [9]: substantial inhibition; asthmatic reaction [10]: significantly reduced
